Read-outs that look alike come from different tables or passages of the source.
How the values were obtained:
[1] = biological target: wild-type human cardiac sodium channel, hNav1.5 (Homo sapiens, UniProt Q14524); assay: Late INa screening assay (late sodium current, PatchXpress whole cell patch clamp); format: cell-based; conditions: for inhibition at 10 µM: read-out: Late INa % blk; for effect on late sodium current: result in words
hERG potassium channel = hERG potassium channel (Homo sapiens, UniProt Q12809); assay: hERG screening assay (PatchXpress patch clamp, CHO cell line)
hERG potassium channel, sequence (Q12809 whole entry): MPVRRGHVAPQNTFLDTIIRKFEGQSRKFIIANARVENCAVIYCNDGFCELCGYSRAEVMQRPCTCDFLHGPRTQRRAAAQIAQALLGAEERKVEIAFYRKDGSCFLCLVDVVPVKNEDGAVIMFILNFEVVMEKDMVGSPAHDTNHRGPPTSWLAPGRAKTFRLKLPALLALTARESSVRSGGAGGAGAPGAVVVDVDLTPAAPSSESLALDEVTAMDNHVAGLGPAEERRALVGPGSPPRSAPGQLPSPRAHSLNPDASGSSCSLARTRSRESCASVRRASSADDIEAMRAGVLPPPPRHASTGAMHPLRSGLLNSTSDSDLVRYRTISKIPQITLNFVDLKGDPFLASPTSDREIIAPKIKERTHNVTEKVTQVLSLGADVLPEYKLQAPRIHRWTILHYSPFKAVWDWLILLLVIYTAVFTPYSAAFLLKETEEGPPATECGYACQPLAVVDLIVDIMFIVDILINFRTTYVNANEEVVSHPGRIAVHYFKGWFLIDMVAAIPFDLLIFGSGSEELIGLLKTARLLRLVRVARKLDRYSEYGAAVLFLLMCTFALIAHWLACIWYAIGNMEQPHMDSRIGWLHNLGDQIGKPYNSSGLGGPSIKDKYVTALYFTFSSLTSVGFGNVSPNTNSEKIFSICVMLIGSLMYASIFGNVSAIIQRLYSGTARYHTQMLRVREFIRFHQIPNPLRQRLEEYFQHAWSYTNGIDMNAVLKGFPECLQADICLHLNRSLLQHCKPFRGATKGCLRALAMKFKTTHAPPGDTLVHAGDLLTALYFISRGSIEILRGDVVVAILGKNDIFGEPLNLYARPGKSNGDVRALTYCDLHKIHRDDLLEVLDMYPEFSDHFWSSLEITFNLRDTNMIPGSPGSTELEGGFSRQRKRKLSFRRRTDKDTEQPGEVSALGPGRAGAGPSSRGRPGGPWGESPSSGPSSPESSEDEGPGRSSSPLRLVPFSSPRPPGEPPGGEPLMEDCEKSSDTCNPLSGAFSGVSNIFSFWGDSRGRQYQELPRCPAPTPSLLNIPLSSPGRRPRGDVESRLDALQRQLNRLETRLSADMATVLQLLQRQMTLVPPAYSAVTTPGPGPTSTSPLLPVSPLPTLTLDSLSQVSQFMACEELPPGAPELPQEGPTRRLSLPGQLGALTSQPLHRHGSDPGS
Experimental: Compounds were screened to test their activity in blocking the hERG potassium channel. The hERG channel is heterologously expressed in a CHO (Chinese Hamster Ovary) cell line. Cells are maintained with standard tissue culture procedures and stable channel expression is maintained with 500 μg/ml G418 in the culture medium. Cells are harvested for testing on the PatchXpress automated patch clamp with Accumax (Innovative Cell Technologies, San Diego, Calif.) to isolate single cells.
The following solutions are used for electrophysiological recordings. The external solution contains: 2 mM CaCl2; 2 mM MgCl2; 4 mM KCl; 150 mM NaCl; 10 mM Glucose; 10 mM HEPES (pH 7.4 with 1M NaOH, osmolarity).
hERG channels are activated when the voltage is stepped to +20 mV from the −80 mV holding potential (see FIG. 3). During a 5 second step at +20 mV, the channels activate and then largely inactivate, so the currents are relatively small. Upon returning to −50 mV from +20 mV, hERG currents transiently become much larger as inactivation is rapidly removed and then the channel closes. The first step to −50 mV for 300 ms is used as a baseline for measuring the peak amplitude during the step to −50 mV after channel activation. The peak current at −50 mV is measured both under control conditions and after addition of compound.
All compounds are prepared as 10 mM DMSO stocks in glass vials. Stock solutions are mixed by vigorous vortexing and sonication for about 2 minutes at room temperature. For testing, compounds are diluted in glass vials using an intermediate dilution step in pure DMSO and then further diluted to working concentrations in external solution. Dilutions are prepared no longer than 20 minutes before use.
After achieving the whole-cell configuration, cells are monitored for 90 seconds to assess stability and washed with external solution for 66 seconds. The voltage protocol described above is then applied to the cells every 12 seconds and throughout the whole procedure. Only cells with stable recording parameters and meeting specified health criteria are allowed to enter the compound addition procedure.
External solution containing 0.1% DMSO (vehicle) is applied to the cells first to establish the control peak current amplitude. After allowing the current to stabilize for 3 to 5 minutes, 1 μM and then 10 μM test compounds are applied. Each compound concentration is added 4 times and cells are kept in test solution until the effect of the compound reaches steady state or for a maximum of 12 minutes. […] Washout in the external solution compartment is performed until the recovery of the current reaches steady state. Data are analyzed using DataXpress, Clampfit (Molecular Devices, Inc., Sunnyvale) and Origin 7 (Originlab Corp.)

wild-type human cardiac sodium channel, hNav1.5, sequence (Q14524 whole entry): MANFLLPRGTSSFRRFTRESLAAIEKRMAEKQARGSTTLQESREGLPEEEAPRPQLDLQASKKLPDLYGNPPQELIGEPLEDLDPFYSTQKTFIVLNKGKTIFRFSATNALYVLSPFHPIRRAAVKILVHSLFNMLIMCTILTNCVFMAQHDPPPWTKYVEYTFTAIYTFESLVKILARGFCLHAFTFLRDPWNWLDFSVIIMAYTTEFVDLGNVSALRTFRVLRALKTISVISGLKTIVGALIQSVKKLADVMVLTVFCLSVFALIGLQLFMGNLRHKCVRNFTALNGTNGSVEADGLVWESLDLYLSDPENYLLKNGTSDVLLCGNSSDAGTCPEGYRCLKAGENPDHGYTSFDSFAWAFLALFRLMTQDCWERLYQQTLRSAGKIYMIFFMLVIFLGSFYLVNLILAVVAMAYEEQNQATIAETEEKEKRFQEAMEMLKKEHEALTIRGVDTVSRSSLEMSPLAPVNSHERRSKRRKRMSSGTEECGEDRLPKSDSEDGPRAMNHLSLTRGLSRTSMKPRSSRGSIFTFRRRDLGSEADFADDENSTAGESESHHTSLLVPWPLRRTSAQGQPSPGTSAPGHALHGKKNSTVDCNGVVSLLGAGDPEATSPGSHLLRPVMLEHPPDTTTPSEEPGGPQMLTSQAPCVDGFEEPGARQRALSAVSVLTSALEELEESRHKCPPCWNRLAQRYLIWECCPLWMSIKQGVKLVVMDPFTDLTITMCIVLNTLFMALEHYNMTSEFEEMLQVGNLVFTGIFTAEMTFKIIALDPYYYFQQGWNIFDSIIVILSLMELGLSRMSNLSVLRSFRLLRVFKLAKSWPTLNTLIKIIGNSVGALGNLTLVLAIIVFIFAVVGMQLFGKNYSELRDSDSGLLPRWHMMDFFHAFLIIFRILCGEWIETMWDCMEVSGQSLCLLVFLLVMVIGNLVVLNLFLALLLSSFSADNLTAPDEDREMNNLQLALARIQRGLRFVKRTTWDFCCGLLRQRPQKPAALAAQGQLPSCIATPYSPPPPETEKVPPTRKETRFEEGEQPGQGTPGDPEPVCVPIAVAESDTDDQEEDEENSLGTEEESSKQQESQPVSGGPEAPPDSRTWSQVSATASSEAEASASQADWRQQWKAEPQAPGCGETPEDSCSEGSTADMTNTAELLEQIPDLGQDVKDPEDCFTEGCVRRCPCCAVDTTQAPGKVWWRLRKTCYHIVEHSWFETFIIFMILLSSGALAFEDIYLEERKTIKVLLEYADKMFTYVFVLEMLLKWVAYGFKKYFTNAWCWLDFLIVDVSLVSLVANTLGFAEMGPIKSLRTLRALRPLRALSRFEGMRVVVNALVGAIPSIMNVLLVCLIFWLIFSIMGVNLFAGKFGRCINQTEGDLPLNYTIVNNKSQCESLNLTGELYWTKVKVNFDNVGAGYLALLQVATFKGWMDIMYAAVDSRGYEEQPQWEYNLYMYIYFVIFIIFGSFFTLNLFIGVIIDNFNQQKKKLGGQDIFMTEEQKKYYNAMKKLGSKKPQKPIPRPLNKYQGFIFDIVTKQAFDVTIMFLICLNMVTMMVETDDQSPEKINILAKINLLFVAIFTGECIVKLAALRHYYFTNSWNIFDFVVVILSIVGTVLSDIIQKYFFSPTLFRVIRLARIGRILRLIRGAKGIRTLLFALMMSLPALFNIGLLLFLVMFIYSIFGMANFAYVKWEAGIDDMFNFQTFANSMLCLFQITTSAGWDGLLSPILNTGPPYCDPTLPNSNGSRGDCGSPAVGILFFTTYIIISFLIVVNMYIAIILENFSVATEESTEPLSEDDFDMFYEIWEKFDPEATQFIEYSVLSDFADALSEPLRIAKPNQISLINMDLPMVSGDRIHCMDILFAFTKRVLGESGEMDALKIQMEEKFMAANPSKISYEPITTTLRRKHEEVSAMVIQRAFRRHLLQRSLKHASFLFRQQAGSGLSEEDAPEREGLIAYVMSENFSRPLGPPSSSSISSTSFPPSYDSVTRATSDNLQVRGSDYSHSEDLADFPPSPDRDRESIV

SMILES: CCOC(=O)C1=C(CC)Nc2nnnn2C1c1cccc2ccccc12 (stereo not drawn) [PT-010, ethyl 5-ethyl-7-(naphthalen-1-yl)-4,7-dihydrotetrazolo[1,5-a]pyrimidine-6-carboxylate]
- inhibition at 10 µM ([1]; compound at 10 μM): 36.1%
- hERG Patch Clamp hERG % blk (hERG potassium channel; 1 μM): 12.5%
- hERG Patch Clamp hERG % blk (hERG potassium channel; 10 μM): 30.0%

SMILES: CCOC(=O)C1=C(C)Nc2nnnn2C1c1csc2ccccc12 (stereo not drawn) [PT-017, ethyl 7-(benzo[b]thiophen-3-yl)-5-methyl-4,7-dihydrotetrazolo[1,5-a]pyrimidine-6-carboxylate]
- inhibition at 10 µM ([1]; compound at 10 μM): 45.9%
- hERG Patch Clamp hERG % blk (hERG potassium channel; 1 μM): 10.0%
- hERG Patch Clamp hERG % blk (hERG potassium channel; 10 μM): 23.5%

SMILES: CCOC(=O)C1=C(C)Nc2nnnn2C1c1sc2ccccc2c1C (stereo not drawn) [PT-018, ethyl 5-methyl-7-(3-methylbenzo[b]thiophen-2-yl)-4,7-dihydrotetrazolo[1,5-a]pyrimidine-6-carboxylate]
- inhibition at 10 µM [1]: 36.5%
- hERG Patch Clamp hERG % blk (hERG potassium channel; 1 μM): 14.5%
- hERG Patch Clamp hERG % blk (hERG potassium channel; 10 μM): 36.5%

SMILES: CCOC(=O)C1=C(C)Nc2nnnn2C1c1cc2ccccc2o1 (stereo not drawn) [PT-019, ethyl 7-(benzofuran-2-yl)-5-methyl-4,7-dihydrotetrazolo[1,5-a]pyrimidine-6-carboxylate]
- inhibition at 10 µM ([1]; compound at 10 μM): 35.7%
- hERG Patch Clamp hERG % blk (hERG potassium channel; 1 μM): 10.0%
- hERG Patch Clamp hERG % blk (hERG potassium channel; 10 μM): 26.0%

SMILES: CC1=C(C(=O)OC(C)C)C(c2cccc3ccccc23)n2nnnc2N1 (stereo not drawn) [PT-021, isopropyl 5-methyl-7-(naphthalen-1-yl)-4,7-dihydrotetrazolo[1,5-a]pyrimidine-6-carboxylate]
- inhibition at 10 µM ([1]; compound at 10 μM): 48.2%
- hERG Patch Clamp hERG % blk (hERG potassium channel; 1 μM): 13.0%
- hERG Patch Clamp hERG % blk (hERG potassium channel; 10 μM): 43.5%

SMILES: CC1=C(C(=O)OCc2ccccc2)C(c2ccccc2-c2ccccc2)n2nnnc2N1 (stereo not drawn) [PT-025, benzyl 7-(biphenyl-2-yl)-5-methyl-4,7-dihydrotetrazolo[1,5-a]pyrimidine-6-carboxylate]
- inhibition at 10 µM ([1]; compound at 10 μM): 78.8%
- hERG Patch Clamp hERG % blk (hERG potassium channel; 1 μM): 11.0%
- hERG Patch Clamp hERG % blk (hERG potassium channel; 10 μM): 53.0%

SMILES: COc1ccc2ccccc2c1C1C(C(=O)OCc2ccccc2)=C(C)Nc2nnnn21 (stereo not drawn) [PT-030, benzyl 7-(2-methoxynaphthalen-1-yl)-5-methyl-4,7-dihydrotetrazolo[1,5-a]pyrimidine-6-carboxylate]
- inhibition at 10 µM ([1]; compound at 10 μM): 66.5%
- hERG Patch Clamp hERG % blk (hERG potassium channel; 1 μM): 10.5%
- hERG Patch Clamp hERG % blk (hERG potassium channel; 10 μM): 34.5%

SMILES: CC1=C(C(=O)OCc2ccccc2)C(c2cccc3c2OCO3)n2nnnc2N1 (stereo not drawn) [PT-034, benzyl 7-(benzo[d][1,3]dioxol-4-yl)-5-methyl-4,7-dihydrotetrazolo[1,5-a]pyrimidine-6-carboxylate]
- inhibition at 10 µM ([1]; compound at 10 μM): 52.4%
- hERG Patch Clamp hERG % blk (hERG potassium channel; 1 μM): 14.5%
- hERG Patch Clamp hERG % blk (hERG potassium channel; 10 μM): 56.0%

SMILES: CC1=C(C(=O)OCc2ccccc2)C(c2c3ccccc3cc3ccccc23)n2nnnc2N1 (stereo not drawn) [PT-039, benzyl 7-(anthracen-9-yl)-5-methyl-4,7-dihydrotetrazolo[1,5-a]pyrimidine-6-carboxylate]
- inhibition at 10 µM ([1]; compound at 10 μM): 82.1%
- hERG Patch Clamp hERG % blk (hERG potassium channel; 1 μM): 10.0%
- hERG Patch Clamp hERG % blk (hERG potassium channel; 10 μM): 27.5%

SMILES: CC1=C(C(=O)OCc2ccccc2)C(c2csc3ccccc23)n2nnnc2N1 (stereo not drawn) [PT-042, benzyl 7-(benzo[b]thiophen-3-yl)-5-methyl-4,7-dihydrotetrazolo[1,5-a]pyrimidine-6-carboxylate]
- inhibition at 10 µM ([1]; compound at 10 μM): 76.5%
- hERG Patch Clamp hERG % blk (hERG potassium channel; 1 μM): 11.0%
- hERG Patch Clamp hERG % blk (hERG potassium channel; 10 μM): 52.5%

SMILES: CC1=C(C(=O)OCc2ccccc2)C(c2sc3ccccc3c2C)n2nnnc2N1 (stereo not drawn) [PT-044, benzyl 5-methyl-7-(3-methylbenzo[b]thiophen-2-yl)-4,7-dihydrotetrazolo[1,5-a]pyrimidine-6-carboxylate]
- inhibition at 10 µM ([1]; compound at 10 μM): 70.7%
- hERG Patch Clamp hERG % blk (hERG potassium channel; 1 μM): 16.5%
- hERG Patch Clamp hERG % blk (hERG potassium channel; 10 μM): 40.0%

SMILES: CC1=C(C(=O)O[C@@H](C)c2ccccc2)[C@@H](c2cccc3ccccc23)n2nnnc2N1 [PT-050, (R)-((S)-1-phenylethyl) 5-methyl-7-(naphthalen-1-yl)-4,7-dihydrotetrazolo[1,5-a]pyrimidine-6-carboxylate]
- inhibition at 10 µM ([1]; compound at 10 μM): 94%
- hERG Patch Clamp hERG % blk (hERG potassium channel; 1 μM): 10.0%
- hERG Patch Clamp hERG % blk (hERG potassium channel; 10 μM): 53.5%

SMILES: COc1ccc(COC(=O)C2=C(C)Nc3nnnn3C2c2cccc3ccccc23)cc1OC (stereo not drawn) [PT-061, 3,4-dimethoxybenzyl 5-methyl-7-(naphthalen-1-yl)-4,7-dihydrotetrazolo[1,5-a]pyrimidine-6-carboxylate]
- inhibition at 10 µM ([1]; compound at 10 μM): 37.3%
- hERG Patch Clamp hERG % blk (hERG potassium channel; 1 μM): 24.0%
- hERG Patch Clamp hERG % blk (hERG potassium channel; 10 μM): 46.5%

SMILES: CC1=C(C(=O)NCc2ccccc2)C(c2ccc3ccccc3c2)n2nnnc2N1 (stereo not drawn) [PT-068, N-benzyl-5-methyl-7-(naphthalen-2-yl)-4,7-dihydrotetrazolo[1,5-a]pyrimidine-6-carboxamide]
- inhibition at 10 µM ([1]; compound at 10 μM): 14.3%
- hERG Patch Clamp hERG % blk (hERG potassium channel; 1 μM): 14.0%
- hERG Patch Clamp hERG % blk (hERG potassium channel; 10 μM): 22.5%

SMILES: CCOC(=O)C1=C(C)Nc2[nH]nc(C)c2C1c1cccc2ccccc12 (stereo not drawn) [PT-074, ethyl 3,6-dimethyl-4-(naphthalen-1-yl)-4,7-dihydro-1H-pyrazolo[3,4-b]pyridine-5-carboxylate]
- inhibition at 10 µM ([1]; compound at 10 μM): 27.7%
- hERG Patch Clamp hERG % blk (hERG potassium channel; 1 μM): 14.0%
- hERG Patch Clamp hERG % blk (hERG potassium channel; 10 μM): 43.0%

SMILES: COC(=O)c1ccc(-c2n[nH]c3c2C(c2cccc4ccccc24)C2=C(COC2=O)N3)cc1 (stereo not drawn) [PT-085, methyl 4-(4-(naphthalen-1-yl)-5-oxo-4,5,7,8-tetrahydro-1H-furo[3,4-b]pyrazolo[4,3-e]pyridin-3-yl)benzoate]
- inhibition at 10 µM ([1]; compound at 10 μM): 9.1%
- hERG Patch Clamp hERG % blk (hERG potassium channel; 1 μM): 34.0%
- hERG Patch Clamp hERG % blk (hERG potassium channel; 10 μM): 44.5%

SMILES: CCOC(=O)C1=C(C)Nc2nccn2C1c1ccc2ccccc2c1 (stereo not drawn) [PT-086, ethyl 7-methyl-5-(naphthalen-2-yl)-5,8-dihydroimidazo[1,2-a]pyrimidine-6-carboxylate]
- inhibition at 10 µM ([1]; compound at 10 μM): 38.8%
- hERG Patch Clamp hERG % blk (hERG potassium channel; 1 μM): 13.5%
- hERG Patch Clamp hERG % blk (hERG potassium channel; 10 μM): 57.5%

SMILES: N#CC1=C(N)NC2=C(C(=O)CCC2)C1c1ccc(Br)cc1 (stereo not drawn) [PT-095, 2-amino-4-(4-bromophenyl)-5-oxo-1,4,5,6,7,8-hexahydroquinoline-3-carbonitrile]
- inhibition at 10 µM ([1]; compound at 10 μM): 4.9%
- hERG Patch Clamp hERG % blk (hERG potassium channel; 1 μM): 10.0%
- hERG Patch Clamp hERG % blk (hERG potassium channel; 10 μM): 24.5%

SMILES: N#CC1=C(N)OC2=C(C(=O)CC(c3ccccc3)C2)C1c1ccco1 (stereo not drawn) [PT-104, 2-amino-4-(furan-2-yl)-5-oxo-7-phenyl-5,6,7,8-tetrahydro-4H-chromene-3-carbonitrile]
- inhibition at 10 µM ([1]; compound at 10 μM): 14.3%
- hERG Patch Clamp hERG % blk (hERG potassium channel; 1 μM): 18.0%
- hERG Patch Clamp hERG % blk (hERG potassium channel; 10 μM): 46.0%

SMILES: CCOC(=O)C1=C(C)NC(C)=C(C(=O)OCC)C1c1cccs1 [PT-111, diethyl 2,6-dimethyl-4-(thiophen-2-yl)-1,4-dihydropyridine-3,5-dicarboxylate]
- inhibition at 10 µM ([1]; compound at 10 μM): 69.2%
- hERG Patch Clamp hERG % blk (hERG potassium channel; 1 μM): 11.5%
- hERG Patch Clamp hERG % blk (hERG potassium channel; 10 μM): 48.5%

SMILES: CCOC(=O)C1=C(C)NC(C)=C(C(=O)OCC)C1c1cc2ccccc2o1 [PT-122, diethyl 4-(benzofuran-2-yl)-2,6-dimethyl-1,4-dihydropyridine-3,5-dicarboxylate]
- inhibition at 10 µM ([1]; compound at 10 μM): 80.3%
- hERG Patch Clamp hERG % blk (hERG potassium channel; 1 μM): 15.5%
- hERG Patch Clamp hERG % blk (hERG potassium channel; 10 μM): 55.0%

SMILES: CCCC1=C(C(=O)OCC)C(c2ccc(C(=O)O)cc2)C2=C(CC(C)(C)CC2=O)N1 (stereo not drawn) [PT-133, 4-(3-(ethoxycarbonyl)-7,7-dimethyl-5-oxo-2-propyl-1,4,5,6,7,8-hexahydroquinolin-4-yl)benzoic acid]
- inhibition at 10 µM ([1]; compound at 10 μM): -27.5%
- hERG Patch Clamp hERG % blk (hERG potassium channel; 1 μM): 10.0%
- hERG Patch Clamp hERG % blk (hERG potassium channel; 10 μM): 12.0%

SMILES: CCOC(=O)C1=C(C)NC2=C(C(=O)CCC2)C1c1cccc2ncccc12 (stereo not drawn) [PT-140, ethyl 2-methyl-5-oxo-1,4,5,6,7,8-hexahydro-4,5′-biquinoline-3-carboxylate]
- inhibition at 10 µM ([1]; compound at 10 μM): 6.3%
- hERG Patch Clamp hERG % blk (hERG potassium channel; 1 μM): 13.5%
- hERG Patch Clamp hERG % blk (hERG potassium channel; 10 μM): 34.5%

SMILES: CCCC1=C(C(=O)OCC)C(c2ccsc2)C2=C(CC(c3ccccc3)CC2=O)N1 (stereo not drawn) [PT-149, ethyl 5-oxo-7-phenyl-2-propyl-4-(thiophen-3-yl)-1,4,5,6,7,8-hexahydroquinoline-3-carboxylate]
- inhibition at 10 µM ([1]; compound at 10 μM): 71.5%
- hERG Patch Clamp hERG % blk (hERG potassium channel; 1 μM): 24.3%
- hERG Patch Clamp hERG % blk (hERG potassium channel; 10 μM): 67.0%

SMILES: CCCC1=C(C(=O)OCC)C(c2ccsc2)C2=C(CC(c3ccco3)CC2=O)N1 (stereo not drawn) [PT-150, ethyl 7-(furan-2-yl)-5-oxo-2-propyl-4-(thiophen-3-yl)-1,4,5,6,7,8-hexahydroquinoline-3-carboxylate]
- inhibition at 10 µM ([1]; compound at 10 μM): 52.9%
- hERG Patch Clamp hERG % blk (hERG potassium channel; 1 μM): 28.2%
- hERG Patch Clamp hERG % blk (hERG potassium channel; 10 μM): 49.3%

SMILES: CC1=C(C(=O)N2CCC(c3ccccc3)CC2)C(c2ccsc2)C2=C(CCCC2=O)N1 (stereo not drawn) [PT-163, 2-methyl-3-(4-phenylpiperidine-1-carbonyl)-4-(thiophen-3-yl)-4,6,7,8-tetrahydroquinolin-5(1H)-one]
- effect on late sodium current [1]: potentiated late sodium current
- hERG Patch Clamp hERG % blk (hERG potassium channel; 1 μM): 15.0%
- hERG Patch Clamp hERG % blk (hERG potassium channel; 10 μM): 53.5%

SMILES: CC1=C(C(=O)N2CCN(c3ccccc3)CC2)C(c2ccc3ccccc3c2)C2=C(CCCC2=O)N1 (stereo not drawn) [PT-165, 2-methyl-4-(naphthalen-2-yl)-3-(4-phenylpiperazine-1-carbonyl)-4,6,7,8-tetrahydroquinolin-5(1H)-one]
- effect on late sodium current [1]: potentiated late sodium current
- hERG Patch Clamp hERG % blk (hERG potassium channel; 1 μM): 30.5%
- hERG Patch Clamp hERG % blk (hERG potassium channel; 10 μM): 64.5%

SMILES: CC1=C(C(=O)NCc2ccccc2)C(c2ccsc2)C2=C(CCCC2=O)N1 (stereo not drawn) [PT-178, N-benzyl-2-methyl-5-oxo-4-(thiophen-3-yl)-1,4,5,6,7,8-hexahydroquinoline-3-carboxamide]
- inhibition at 10 µM ([1]; compound at 10 μM): 0.3%
- hERG Patch Clamp hERG % blk (hERG potassium channel; 1 μM): 11.5%
- hERG Patch Clamp hERG % blk (hERG potassium channel; 10 μM): 30.0%

SMILES: CCOC(=O)C1=C(C(C)C)NC(C(C)C)=C(C(=O)OCC)C1c1ccc(Br)s1 [PT-183, diethyl 4-(5-bromothiophen-2-yl)-2,6-diisopropyl-1,4-dihydropyridine-3,5-dicarboxylate]
- inhibition at 10 µM ([1]; compound at 10 μM): 54%
- hERG Patch Clamp hERG % blk (hERG potassium channel; 1 μM): 10.0%
- hERG Patch Clamp hERG % blk (hERG potassium channel; 10 μM): 10.0%

SMILES: CCOC(=O)C1=C(C)NC2=C(C(=O)CCC2)C1c1ccnc2ccccc12 (stereo not drawn) [PT-190, ethyl 2-methyl-5-oxo-1,4,5,6,7,8-hexahydro-4,4′-biquinoline-3-carboxylate]
- inhibition at 10 µM ([1]; compound at 10 μM): 4.2%
- hERG Patch Clamp hERG % blk (hERG potassium channel; 1 μM): 10.5%
- hERG Patch Clamp hERG % blk (hERG potassium channel; 10 μM): 32.0%

Reference: patent publication US20090012103A1, “SUBSTITUTED HETEROCYCLIC COMPOUNDS” (priority 2007, published 2009)
